From patent US6495514B1, “Method for reducing inflammation and inducing an analgesic effect and compounds thereof” (Mercer University, priority 1998, dated 2002)
Marks after values point to notes of the source that are not given here.

What was measured:
[1] = system: carrageenan edema; test: Carrageenan-induced hind paw edema; format: in vivo, rat; conditions: for inhibition of hind paw edema: 2 hours post-administration
Description: Carrageenan, bradykinin and serotonin edemas were induced in anesthetized, male Sprague-Dawley rats (150-175 g) by injecting 0.5 mg (0.05 ml) of carrageenan, 50 μg (0.1 ml) of bradykinin and 20 μg (0.1 ml) of serotonin, respectively, into the subplantar region of the left hind paws the contralateral hind paws received saline only. Hind paw volumes (edema) were measured plethysmographically by displacement of mercury at 0, 1, 2, 3, 4 and 6 hours post administration of carrageenan, 30 minutes after bradykinin and 1 hour after serotonin. Swelling was determined by subtracting the volume (ml) of the right hind . paw from that of the left. […] In those experiments in which PBA was delivered continuously to rats over a 7 day period prior to the administration of carrageenan, ALZET osmotic pumps (Palo Alto, Calif.) were filled with drug and implanted subcutaneously between the scapulae into anesthetized rats.

[2] = system: bradykinin edema; test: Bradykinin-induced hind paw edema; format: in vivo, rat
Description: (§1) Carrageenan, bradykinin and serotonin edemas were induced in anesthetized, male Sprague-Dawley rats (150-175 g) by injecting 0.5 mg (0.05 ml) of carrageenan, 50 μg (0.1 ml) of bradykinin and 20 μg (0.1 ml) of serotonin, respectively, into the subplantar region of the left hind paws the contralateral hind paws received saline only. Hind paw volumes (edema) were measured plethysmographically by displacement of mercury at 0, 1, 2, 3, 4 and 6 hours post administration of carrageenan, 30 minutes after bradykinin and 1 hour after serotonin. Swelling was determined by subtracting the volume (ml) of the right hind . paw from that of the left. PBA was administered subcutaneously 30 minutes before the administration of carrageenan and serotonin and one hour before bradykinin. In those experiments in which PBA was delivered continuously to rats over a 7 day period prior to the administration of carrageenan, ALZET osmotic pumps (Palo Alto, Calif.) were filled with drug and implanted subcutaneously between the scapulae into anesthetized rats.

[3] = system: serotonin edema; test: Serotonin-induced hind paw edema; format: in vivo, rat
Description: as §1

[4] = system: phenyl-p-quinone-induced writhing; test: Phenyl-p-quinone-induced writhing; format: in vivo, mice
Description: (§2) The effects of PBA on the perception of pain was evaluated using several different animal models. The spinally-mediated tail-flick response to heat in fasted rats (250-290 g) was used by measuring the withdrawal latency following immersion of the rodent's tail (2″) into hot water (50° C.). PBA at several different dose levels was administered subcutaneously and the time to tail withdrawal was measured at 0, 15, 30 and 60 minutes post-drug administration. The analgesic effects of PBA were also evaluated in fasted mice following the injection of either phenyl-p-quinone or acetylcholine. Male, ND4 Swiss mice (15-20 g) were dosed subcutaneously with PBA or saline followed immediately by the injection of phenyl-p-quinone (2 mg/kg i.p.). After 5 minutes, the number of writhes (abdominal constrictions along with contortion of the trunk and extension of the hindlimbs) was counted over the next 10 minutes. When acetylcholine (6 mg/kg i.p.) was used as the noxious agent, PBA was administered subcutaneously 15 minutes before the administration of the algesic agent. The number of writhes produced was counted over the last 5 minutes following the algesic agent.

[5] = system: tail withdrawal latency; test: Tail-flick response to heat (50° C. water); format: in vivo, rat; conditions: s.c., doses up to 750 mg/kg; 15, 30 and 60 minutes post-drug
Description: as §2

[6] = system: substance P (SP); test: SP levels in hind paw tissue (RIA); format: in vivo, rat; conditions: 75 mg/kg/hr for 7 days, prior to carrageenan (time 0)
Description: The effects of PBA on levels of SP were evaluated using a modification of a method previously disclosed in Ahmed et al. (Peptides 15, 317-322, 1994). Briefly, at different times following the administration of carrageenan, hind paw ankle joints were removed, immediately frozen on dry ice and stored at −80° C. until assayed for SP. After the frozen sample was weighed, it was boiled for 7 minutes as a 10% w/v solution of 2M acetic acid in 4% EDTA, pH 3.5, cut into small pieces and boiled for an additional 7 minutes. Samples were then homogenized for 60 seconds in a Brinkmann Polytron (Westbury, N.Y.), sonicated for 30 seconds and centrifuged at 3000×g for 20 minutes. Supernatants were lyophilized and then diluted in radioimmunoassay (RIA) buffer prior to analysis. SP levels were determined from these samples by using a commercially available RIA kit (INCSTAR, Stillwater, Minn.). Initial experiments conducted to insure the specificity of the substance P antibody for SP found the cross-reactivity for the glycine-extended precursor to be 1.7% at concentrations up to 100 nanograms/ml.

[7] = system: acetylcholine-induced writhing; test: Acetylcholine-induced writhing; format: in vivo, mice
Description: as §2

[8] = target: T1, peptidylamidoglycolate lyase (PGL) (Rattus norvegicus, UniProt P14925); test: Serum PGL activity after PBA dosing in rats; format: in vivo; conditions: 500 mg/kg s.c., 24 hour observation period
T1 construct: from tissue; host or cells: rat serum (tail vein blood)
T1 sequence (P14925 36-976): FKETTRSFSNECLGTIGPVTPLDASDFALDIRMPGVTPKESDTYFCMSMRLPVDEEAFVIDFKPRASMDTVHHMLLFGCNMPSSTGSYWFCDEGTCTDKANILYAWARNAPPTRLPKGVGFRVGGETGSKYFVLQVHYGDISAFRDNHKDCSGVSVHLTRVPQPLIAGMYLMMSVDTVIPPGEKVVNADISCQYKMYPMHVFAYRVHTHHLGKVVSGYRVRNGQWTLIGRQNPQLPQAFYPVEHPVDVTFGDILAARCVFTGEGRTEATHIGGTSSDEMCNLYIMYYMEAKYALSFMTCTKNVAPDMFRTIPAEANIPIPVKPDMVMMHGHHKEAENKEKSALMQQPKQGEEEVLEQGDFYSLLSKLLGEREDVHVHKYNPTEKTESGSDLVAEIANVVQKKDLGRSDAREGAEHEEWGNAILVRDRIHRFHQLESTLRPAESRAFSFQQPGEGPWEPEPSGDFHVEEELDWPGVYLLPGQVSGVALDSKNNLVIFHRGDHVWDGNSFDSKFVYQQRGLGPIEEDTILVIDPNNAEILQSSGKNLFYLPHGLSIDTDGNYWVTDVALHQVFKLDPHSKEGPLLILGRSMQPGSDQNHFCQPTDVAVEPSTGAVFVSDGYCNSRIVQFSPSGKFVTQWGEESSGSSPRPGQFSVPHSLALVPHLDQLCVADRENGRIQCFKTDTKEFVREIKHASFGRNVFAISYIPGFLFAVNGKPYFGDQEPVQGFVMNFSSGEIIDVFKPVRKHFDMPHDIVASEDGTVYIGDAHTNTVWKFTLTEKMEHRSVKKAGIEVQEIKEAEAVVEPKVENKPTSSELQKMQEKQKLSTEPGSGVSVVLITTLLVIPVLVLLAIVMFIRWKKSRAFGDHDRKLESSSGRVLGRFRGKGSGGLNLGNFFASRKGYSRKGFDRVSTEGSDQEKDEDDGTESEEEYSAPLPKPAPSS
Description: Male rats were fasted overnight and anesthetized with ether to obtain blood samples for measuring PAM and PGL activity in serum. Blood (0.5 ml) was collected from the tail vein at different times and spun at 14,000×g for 5 minutes. Serum was collected and stored at −70° C. until assayed. PAM activity was determined based on the procedure disclosed in Katopodis et al. (Biochemistry 30, 6189-6194, 1991). Briefly, 50 μl of serum sample (enzyme source) was added to 200 μl of the assay mixture which contained tripeptide TNP-D-Tyr-Val-Gly as the enzyme substrate (40 μM), copper sulfate (15 μM), L-ascorbate (4 mM) and catalase (1 mg/ml) in MES buffer (100 mM, pH 6.5). After a 30 minute incubation period at 37° C., an aliquot (90 μl) was quenched with 10 μl of HClO4 (3M) and centrifuged at 14,000×g for 5 minutes. A 20 μl aliquot was removed and used to assay for product using reverse phase HPLC at 344 nm on a C8 column with a mobile phase of 56% water/0.1% trifluoroacetic acid/44% acetonitrile at a flow rate of 1.5 mL/min. In this manner, both TNP-D-Tyr-Val-NH2 as well as the TNP-D-Tyr-Val-α-hydroxyGly were quantitated simultaneously. […] Enzyme activity was expressed as milliunits per milliliter which is the amount of enzyme required to produce one nanomole of product.

[9] = target: T2, peptidylglycine α-monooxygenase (PAM) (Rattus norvegicus, UniProt P14925); test: Serum PAM activity after PBA dosing in rats; format: in vivo; conditions: for inhibition at 500 mg/kg: rat, sc
T2 construct: 50 μl of serum sample (enzyme source) was added to 200 μl of the assay mixture; from tissue; host or cells: rat serum (tail vein blood)
T2 sequence (P14925 36-976): T1 sequence (P14925 36-976)
Description: Male rats were fasted overnight and anesthetized with ether to obtain blood samples for measuring PAM and PGL activity in serum. Blood (0.5 ml) was collected from the tail vein at different times and spun at 14,000×g for 5 minutes. Serum was collected and stored at −70° C. until assayed. PAM activity was determined based on the procedure disclosed in Katopodis et al. (Biochemistry 30, 6189-6194, 1991). Briefly, 50 μl of serum sample (enzyme source) was added to 200 μl of the assay mixture which contained tripeptide TNP-D-Tyr-Val-Gly as the enzyme substrate (40 μM), copper sulfate (15 μM), L-ascorbate (4 mM) and catalase (1 mg/ml) in MES buffer (100 mM, pH 6.5). After a 30 minute incubation period at 37° C., an aliquot (90 μl) was quenched with 10 μl of HClO4 (3M) and centrifuged at 14,000×g for 5 minutes. A 20 μl aliquot was removed and used to assay for product using reverse phase HPLC at 344 nm on a C8 column with a mobile phase of 56% water/0.1% trifluoroacetic acid/44% acetonitrile at a flow rate of 1.5 mL/min. In this manner, both TNP-D-Tyr-Val-NH2 as well as the TNP-D-Tyr-Val-α-hydroxyGly were quantitated simultaneously. PGL activity was assayed by measuring the conversion of α-hydroxyhippuric acid to benzamide as disclosed in Katopodis and May (Biochemistry 29, 4541-4548, 1990). Briefly, 50 μl of the serum sample was added to 200 μl of a 100 mM MES buffer solution (pH 6.5) containing 2 mM of the enzyme substrate. After incubation for 30 minutes at 37° C., an aliquot of the assay mixture was quenched with 3 M HClO4, centrifuged at 14,000×g and 20 μl used to analyze for benzamide product by HPLC using a C8 reverse phase column. Product detection was performed at 225 nm using a mobile phase of 80% water/0.1% trifluoroacetic acid/20% acetonitrile at a flow rate of 1.5 mL/min. Enzyme activity was expressed as milliunits per milliliter which is the amount of enzyme required to produce one nanomole of product.

[10] = dose that produced significant inhibition of carrageenan edema

SMILES: O=C(O)C/C=C/c1ccccc1 [PBA, trans-4-phenyl-3-butenoic acid]
- inhibition of carrageenan edema ([1]; 75 mg/kg/hr for 1 week before carrageenan, each time period): significant inhibition
- activity on carrageenan edema ([1]; 100 mg/kg dose): did not show any activity
- inhibition of hind paw swelling ([1]; 100 mg/kg, administered 2 hours after induction of inflammation): only effective at hour 3
- inhibition of hind paw edema ([1]; 250 mg/kg s.c. 30 minutes before carrageenan): 43%
- inhibition of hind paw swelling ([1]; 250 mg/kg, administered 2 hours after induction, up to 6 hours post-phlogistic agent): significant inhibition of hind paw swelling
- inhibition of hind paw edema ([1]; 500 mg/kg s.c. 30 minutes before carrageenan): 67%
- inhibition of hind paw swelling ([1]; 500 mg/kg, administered 2 hours after induction, up to 6 hours post-phlogistic agent): significant inhibition of hind paw swelling
- Inhibition (%) ([1]; Carrageenan, PBA s.c. 30 minutes before, measured 2 hours after, P < .05): 66.7^b %
- Hind Paw Volume (mL ± S.E.M.) ([1]; Carrageenan, PBA s.c. 30 minutes before, measured 2 hours after, n = 8): 0.31 ± 0.07 mL
- dose dependence of inhibition of hind paw edema ([1]; s.c. 30 minutes before carrageenan, at 2 and 3 hours post-administration): dose-related inhibition
- Inhibition (%) ([2]; Bradykinin 50 μg, PBA s.c. 1 hour before, measured 30 minutes after): 25.6%
- Hind Paw Volume (mL ± S.E.M.) ([2]; Bradykinin 50 μg, PBA s.c. 1 hour before, measured 30 minutes after, n = 8): 0.29 ± 0.04 mL
- inhibitory activity on edema produced by bradykinin [2, 10]: lacked significant inhibitory activity
- Inhibition (%) ([3]; Serotonin 20 μg, PBA s.c. 30 minutes before, measured 1 hour after): 18.5%
- Hind Paw Volume (mL ± S.E.M.) ([3]; Serotonin 20 μg, PBA s.c. 30 minutes before, measured 1 hour after, n = 8): 0.66 ± 0.03 mL
- inhibitory activity on edema produced by serotonin [3, 10]: lacked significant inhibitory activity
- analgesic effect in writhing assay ([4]; 100 mg/kg dose): significant analgesic effect
- inhibition of writhing ([4]; 250 mg/kg s.c.): greater than 85%
- effect on time to tail withdrawal [5]: did not have any effect
- SP levels in hind paw tissue compared to controls [6]: significantly reduced
- analgesic effect in writhing assay ([7]; 100 mg/kg dose): significant analgesic effect
- ED50 ([7]; Mus musculus, sc, s.c. 15 minutes before acetylcholine, percentage of animals per group that writhed (all or none)): 105 mg/kg
- effect on serum PGL activity [8]: no effect
- serum PAM activity compared to controls ([9]; 75 mg/kg/hr for 7 days, prior to carrageenan (time 0)): significantly reduced
- serum PAM activity vs control ([9]; 500 mg/kg s.c. single dose, after 24 hours): not significantly different from control values
- dose dependence of inhibition of serum PAM activity ([9]; 50, 150 and 500 mg/kg, normal rats): dose-related
- sustained reduction in serum PAM activity ([9]; continuous release 50 to 100 mg/kg/hr s.c. via osmotic pumps, throughout 7 day dosing period): > 75%
- inhibition at 500 mg/kg ([9]; 500 mg/kg s.c. single dose, by 6 hours): 43%
- inhibition at 500 mg/kg ([9]; 500 mg/kg s.c. single dose, conscious rats, within 1 hour, remained during first 3 hours): > 90%
